Legend:
Experiment in all cases: relative viability (nuclei count vs DMSO), 5 days (fraction); higher = more cells survive
Sorafenib + Alpelisib = compound: CNC(=O)c1cc(Oc2ccc(NC(=O)Nc3ccc(Cl)c(C(F)(F)F)c3)cc2)ccn1 [Sorafenib] + Cc1nc(NC(=O)N2CCC[C@H]2C(N)=O)sc1-c1ccnc(C(C)(C)C(F)(F)F)c1 [Alpelisib] (partner 2 µM)
In short: (§1)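 The day after seeding in 1536-well plates, lung cancer cell lines were treated by pin tool with a single drug, or with a fixed anchor-drug dose together with five library-drug doses (not always all listed) in √10 steps. After 5 days, a combined fix-and-stain solution (final 0.05% Triton X-100, 1% formaldehyde, 1 ug/ml Hoechst) was added. Nuclei counted on 4× images gave relative viability as treated counts over vehicle counts, reported as the median of duplicate plates.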

Sorafenib + Navitoclax = compound: CNC(=O)c1cc(Oc2ccc(NC(=O)Nc3ccc(Cl)c(C(F)(F)F)c3)cc2)ccn1 [Sorafenib] + CC1(C)CCC(c2ccc(Cl)cc2)=C(CN2CCN(c3ccc(C(=O)NS(=O)(=O)c4ccc(N[C@H](CCN5CCOCC5)CSc5ccccc5)c(S(=O)(=O)C(F)(F)F)c4)cc3)CC2)C1 [Navitoclax] (partner 0.5 µM)
In short: as §1

Sorafenib + Foretinib = compound: CNC(=O)c1cc(Oc2ccc(NC(=O)Nc3ccc(Cl)c(C(F)(F)F)c3)cc2)ccn1 [Sorafenib] + COc1cc2c(Oc3ccc(NC(=O)C4(C(=O)Nc5ccc(F)cc5)CC4)cc3F)ccnc2cc1OCCCN1CCOCC1 [Foretinib] (partner 0.25 µM)
In short: as §1

Sorafenib + Decitabine = compound: CNC(=O)c1cc(Oc2ccc(NC(=O)Nc3ccc(Cl)c(C(F)(F)F)c3)cc2)ccn1 [Sorafenib] + Nc1ncn([C@H]2C[C@H](O)[C@@H](CO)O2)c(=O)n1 [Decitabine] (partner 2 µM)
In short: as §1

Sorafenib + Lapatinib = compound: CNC(=O)c1cc(Oc2ccc(NC(=O)Nc3ccc(Cl)c(C(F)(F)F)c3)cc2)ccn1 [Sorafenib] + CS(=O)(=O)CCNCc1ccc(-c2ccc3ncnc(Nc4ccc(OCc5cccc(F)c5)c(Cl)c4)c3c2)o1 [Lapatinib] (partner 2 µM)
In short: as §1

Cell Line | relative viability (Sorafenib + Alpelisib; first compound 0.08 µM) | relative viability (Sorafenib + Alpelisib; first compound 0.253 µM) | relative viability (Sorafenib + Alpelisib; first compound 2.53 µM) | relative viability (Sorafenib + Alpelisib; first compound 8 µM) | relative viability (Sorafenib + Navitoclax; first compound 0.08 µM) | relative viability (Sorafenib + Navitoclax; first compound 0.253 µM) | relative viability (Sorafenib + Navitoclax; first compound 2.53 µM) | relative viability (Sorafenib + Navitoclax; first compound 8 µM) | relative viability (Sorafenib + Foretinib; first compound 0.08 µM) | relative viability (Sorafenib + Foretinib; first compound 0.253 µM) | relative viability (Sorafenib + Foretinib; first compound 2.53 µM) | relative viability (Sorafenib + Foretinib; first compound 8 µM) | relative viability (Sorafenib + Decitabine; first compound 0.08 µM) | relative viability (Sorafenib + Decitabine; first compound 0.253 µM) | relative viability (Sorafenib + Decitabine; first compound 2.53 µM) | relative viability (Sorafenib + Decitabine; first compound 8 µM) | relative viability (Sorafenib + Lapatinib; first compound 0.08 µM) | relative viability (Sorafenib + Lapatinib; first compound 0.253 µM) | relative viability (Sorafenib + Lapatinib; first compound 2.53 µM) | relative viability (Sorafenib + Lapatinib; first compound 8 µM)
NCI-H2170 | 0.792 | 0.843 | 0.865 | 0.754 | 0.615 | 0.57 | 0.64 | 0.502 | 1.02 | 0.994 | 0.986 | 0.967 | 0.493 | 0.411 | 0.486 | 0.437 | 0.279 | 0.294 | 0.349 | 0.39
NCI-H2347 | 1.2 | 0.89 |  | 1 | 0.932 | 0.676 | 0.84 | 0.815 | 1.41 | 0.673 | 0.953 | 0.775 | 0.592 | 0.628 | 0.675 | 0.594 | 0.945 | 0.83 | 0.965 | 0.968
NCI-H2405 | 1 | 0.857 | 0.627 | 0.423 | 1.16 | 0.88 | 0.7 | 0.348 | 1.14 | 1.04 | 1.07 | 0.92 | 0.754 | 0.726 | 0.737 | 0.577 | 1.26 | 0.967 | 1.09 | 0.784
NCI-H3122 | 0.799 | 0.971 | 0.79 | 0.409 | 1.04 | 1.06 | 1.03 | 0.753 | 0.985 | 0.993 | 1.01 | 0.618 | 0.384 | 0.467 | 0.375 | 0.189 | 1.05 | 0.987 | 1.02 | 1.01
PC-3 [JPC-3] | 1.07 | 0.987 | 1.08 | 1.12 | 0.883 | 0.775 | 0.806 | 0.877 | 1.07 | 1.05 | 0.985 | 0.882 | 0.835 | 0.763 | 0.837 | 0.826 | 0.499 | 0.439 | 0.502 | 0.537
PC-14 | 1 | 0.848 | 0.854 | 0.753 | 1.02 | 0.949 | 0.888 | 0.955 | 1.02 | 0.945 | 1.11 | 0.913 | 0.22 | 0.177 | 0.225 | 0.156 | 0.434 | 0.303 | 0.401 | 0.534
RERF-LC-KJ | 1.03 | 0.989 | 0.951 | 0.906 | 0.932 | 1.11 | 0.867 | 0.705 | 0.969 | 0.829 | 0.882 | 0.849 | 0.74 | 0.673 | 0.586 | 0.473 | 0.917 | 0.782 | 0.838 | 0.778
SK-LU-1 | 0.987 |  | 0.868 | 0.242 | 0.926 |  | 0.729 | 0.207 | 0.857 | 0.632 | 0.761 | 0.692 | 0.605 | 0.564 | 0.578 | 0.396 | 0.914 | 0.735 | 0.774 | 0.373
SK-MES-1 | 0.957 | 0.877 | 0.854 | 0.873 | 1.17 | 1.26 | 1.22 |  | 1.07 | 0.896 | 0.903 | 0.818 | 0.365 | 0.326 | 0.322 | 0.338 | 0.468 | 0.465 | 0.56 | 0.515
SW 1573 | 0.879 | 0.757 | 0.805 | 0.578 | 1.1 | 0.947 | 0.983 | 0.689 | 1.09 | 0.791 | 0.995 | 0.777 | 0.57 | 0.511 | 0.408 | 0.182 | 1.18 | 0.978 | 1.12 | 0.963
UMC-11 | 0.999 | 0.959 | 0.968 | 0.529 | 0.32 |  | 0.34 | 0.152 | 0.968 | 1.02 | 0.941 | 0.58 | 0.596 | 0.57 | 0.535 | 0.249 | 1.08 | 0.874 | 1.07 | 0.468

Reference: the supplement of paper PMC10307832
